Source: patent US8980954B2, “Substituted cis- and trans-stilbenes as therapeutic agents” (STC.UNM, priority 2006, dated 2015)

Tests used:
[1] = system: AP-1; assay: Inhibition of the TPA-induced activation of AP-1, 293T/AP-1-luc luciferase reporter cell assay; type: cell-based, human; conditions: 293T/AP-1-luc cells, TPA 10 ng/ml, 24 hours; for IC50: Homo sapiens
Method: An AP-1 reporter stable cell line derived from human 293T embryonic kidney cells transfected with a luciferase reporter construct containing three AP-1 binding sites in the promoter (293T/AP-1-luc, Panomics, Inc., Redwood City, Calif.) was grown in a humidified atmosphere at 37° C. in 5% CO2/95% air. The cells were maintained in Dulbecco's Modified Eagle's Medium (DMEM—high glucose containing 4 mM glutamine) supplemented with 10% fetal bovine serum (FBS), 1 mM sodium pyruvate, 100 units/ml penicillin, 100 μg/ml streptomycin and 100 μg/ml hygromycin (Gibco/Invitrogen, Carlsbad, Calif.) to maintain cell selection. One day prior to treatment, the 293T/AP-1-luc cells were plated into 24-well cell culture plates (Costar, Cambridge, Ma.) in the above media without hygromycin. The following day, the cells, which were at approximately 60% confluency, were fed fresh media with or without TPA, 10 ng/ml, (Calbiochem) and immediately treated with curcumin or analog prepared in DMSO stock solutions. The cells were placed again in a humidified atmosphere at 37° C. in 5% CO2/95% air for 24 hours. Plate wells were gently washed with phosphate buffered saline, pH 7.4, and lysed with 1x passive lysis buffer (Promega, Madison, Wis.). The subsequent lysates were analyzed with the Luciferase Assay System (Promega) utilizing a TD-20/20 luminometer (Turner Designs, Sunnyvale, Calif.). The firefly luciferase relative light units were normalized to protein (mg/ml) with BCA™ Protein Assay Kit (Pierce, Rockford, Ill.) and standardized to percent of control (TPA control).

[2] = system: NF-κB; assay: Inhibition of the TNFα-induced activation of NF-κB, 293T/NF-κB-luc luciferase reporter cell assay; type: cell-based, human; conditions: 7 hours; for activity as inhibitor of the TNFα-induced activation of NF-κB in the preliminary screen: screened at 15 μM, FIGS. 1-5; for IC50: Homo sapiens, HEK-293T, 293T/NF-κB-luc cells, TNFα 20 ng/ml, triplicate, read-out: IC50 for inhibition of the TNFα-induced activation of NFκB
Method: The cells were maintained in Dulbecco's Modified Eagle's Medium (DMEM—high glucose containing 4 mM glutamine) supplemented with 10% fetal bovine serum (FBS), 1 mM sodium pyruvate, 100 units/ml penicillin, 100 μg/ml streptomycin and 100 μg/ml hygromycin (Gibco/Invitrogen, Carlsbad, Calif.) to maintain cell selection. […] The following day cells were fed fresh media 1 hour prior to treatment. […] Plate wells were gently washed with phosphate buffered saline, pH 7.4, and lysed with 1x passive lysis buffer (Promega, Madison, Wis.). The subsequent lysates were analyzed with the Luciferase Assay System (Promega) utilizing a TD-20/20 luminometer (Turner Designs, Sunnyvale, Calif.). The firefly luciferase relative light units were normalized to protein (mg/ml) with BCA™ Protein Assay Kit (Pierce, Rockford, Ill.) and standardized to percent of control (TNFα control).

[3] = TRAP assay (total radical-trapping anti-oxidant parameter)
Source text: (§1) The total radical-trapping anti-oxidant parameter assay (TRAP assay) measures the ability of an analog to react with the pre-formed radical monocation of 2,2′-azinobis-(3-ethylbenzothiazoline-6-sulfonic acid) (ABTS-^+). The ferric reducing/anti-oxidant power assay (FRAP assay) measures the ability of an analog to reduce a ferric tripyridyltriazine complex.
(§2) In both colorimetric assays, the vitamin E analog Trolox was used as a control.
(§3) The anti-oxidant activities of certain stilbene analogs according to the present invention were determined using two standard assays. See, Schlesier, et al., Free Rad Res. 2002;36:177-187. The total radical-trapping anti-oxidant parameter assay (TRAP assay) measures the ability of an analog to react with the pre-formed radical monocation of 2,2′-azinobis-(3-ethylbenzothiazoline-6-sulfonic acid) (ABTS^+). See, Re, et al., Free Rad Biol Med, 26:1231-1237 (1999). ABTS was reacted with potassium persulfate in the dark, overnight, to generate the colored ABTS^+ radical cation, which has an absorption maximum at 734 nm. The activities of curcumin and analogs were determined by their abilities to quench the color of the radical cation. The ferric reducing/anti-oxidant power assay (FRAP assay) measures the ability of an analog to reduce a ferric tripyridyltriazine complex. See, Benzie and Strain, Meth Enzymol, 299:15-27 (1999). The ferric complex of 2,4,6-tripyridyl-s-triazine was prepared at acidic pH, and the anti-oxidant activities of curcumin and analogs were determined by their abilities to reduce the ferric complex to the ferrous complex, monitored by formation of the ferrous complex at 593 nm. In both colorimetric assays, the vitamin E analog Trolox was used as a control.

[4] = FRAP assay (ferric reducing/anti-oxidant power)
Source text: as §1, §2
as §3, with “ABTS was reacted with potassium persulfate in the dark, overnight, to generate the colored ABTS^+ radical cation, which has an absorption maximum at 734 nm.” left out, “The ferric reducing/anti-oxidant power assay (FRAP assay) measures the ability of an analog to reduce a ferric tripyridyltriazine complex. See, Benzie and Strain, Meth Enzymol, 299:15-27 (1999).” left out, “In both colorimetric assays, the vitamin E analog Trolox was used as a control.” left out

[5] = system: COX-2 mRNA; assay: Inhibition of LPS-induced expression of COX-2 mRNA in BV-2 microglial cells (qRT-PCR); type: cell-based, mouse; conditions: BV-2 cells, LPS 0.2 μg/ml, 24 hours; for inhibition of LPS-induced COX-2 mRNA compared with resveratrol: 0.15 μM
[6] = system: NF-κB; conditions: cited from earlier work

| SMILES | IC50 [1] [nM] | activity as inhibitor of the TNFα-induced activation of NF-κB in the preliminary screen [2] | IC50 [2] [nM] | further results |
| --- | --- | --- | --- | --- |
| COc1ccc(/C=C/c2ccccn2)cc1 | 2100 ± 400 | – | – | – |
| COc1ccc(/C=C/c2ccccc2)cc1 [4b, (E)-4-Methoxystilbene] | 1300 ± 30 | especially active | – | – |
| CN(C)c1ccc(/C=C/c2ccccc2)cc1 [4cc, (E)-4-N,N-Dimethylaminostilbene] | 1100 ± 100 | – | 150 | anti-oxidant activity in the TRAP assay [3]: exhibits anti-oxidant activity; anti-oxidant activity (TRAP or FRAP assay, not told apart) [3]: retained anti-oxidant activity; anti-oxidant activity in the FRAP assay [4]: exhibits anti-oxidant activity; inhibition of LPS-induced COX-2 mRNA compared with resveratrol [5]: almost as effective as 4 μM resveratrol |
| Cc1ccc(/C=C/c2ccccc2)cc1 [4d, (E)-4-Methylstilbene] | 1600 ± 600 | – | – | – |
| CCOc1ccc(/C=C/c2ccccc2)cc1 [4k, (E)-4-Ethoxystilbene] | 800 ± 100 | – | – | – |
| COc1cccc(/C=C/c2ccccc2)c1OC [4o, (E)-2,3-Dimethoxystilbene] | – | retained very little activity | – | – |
| COc1ccc(/C=C/c2ccccc2)cc1O [4s, (E)-3-Hydroxy-4-methoxystilbene] | – | considerably more active than resveratrol | – | – |
| COc1ccc(/C=C/c2ccccc2)c(OC)c1 [4u, (E)-2,4-Dimethoxystilbene] | – | especially active | – | – |
| COc1ccc(/C=C/c2ccc(OC)cc2)cc1 [6b, (E)-4,4′-Dimethoxystilbene] | – | retained very little activity | – | – |
| COc1ccc(/C=C/c2cccc(O)c2O)cc1 [6cc, (E)-2,3-Dihydroxy-4′-methoxystilbene] | – | considerably more active than resveratrol | – | – |
| COc1ccc(/C=C/c2ccc(C)cc2)cc1 [6d, (E)-4′-Methoxy-4-methylstilbene] | 800 ± 30 | – | 900 ± 100 | – |
| COc1ccc(/C=C/c2cc(OC)cc(OC)c2)cc1 [6f, (E)-3,4′,5-Trimethoxystilbene] | 3800 ± 1100 | especially active | – | – |
| COc1ccc(/C=C/c2cccc(Cl)c2)cc1 [6h, (E)-3-Chloro-4′-methoxystilbene] | 800 ± 150 | – | 1000 ± 100 | – |
| COc1ccc(/C=C/c2cccc(C)c2)cc1 [6i, (E)-4′-Methoxy-3-methylstilbene] | 1000 ± 120 | – | 800 ± 200 | – |
| COc1ccc(/C=C/c2ccccc2Cl)cc1 [6j, (E)-2-Chloro-4′-methoxystilbene] | – | – | 1500 ± 30 | – |
| COc1ccc(/C=C/c2cccc(F)c2)cc1 [6n, (E)-3-Fluoro-4′-methoxystilbene] | 500 ± 100 | – | – | – |
| COc1ccc(/C=C/c2cccc(OC)c2OC)cc1 [6o, (E)-2,3,4′-Trimethoxystilbene] | 2400 ± 700 | especially active | – | – |
| COc1ccc(/C=C/c2ccccc2F)cc1 [6p, (E)-2-Fluoro-4′-methoxystilbene] | 800 ± 100 | – | 150 | anti-oxidant activity (TRAP or FRAP assay, not told apart) [3]: does not exhibit anti-oxidant activity; inhibition of LPS-induced COX-2 mRNA compared with resveratrol [5]: almost as effective as 4 μM resveratrol |
| COc1ccc(/C=C/c2cccc(OC)c2)cc1 [6r, (E)-3,4′-Dimethoxystilbene] | 700 ± 40 | especially active | 600 ± 100 | – |
| COc1ccc(/C=C/c2ccc(O)c(O)c2)cc1 [6x, (E)-3,4-Dihydroxy-4′-methoxystilbene] | – | considerably more active than resveratrol | 600 ± 400 | – |
| Oc1ccc(/C=C/c2cc(O)cc(O)c2)cc1 [resveratrol, 3,4′,5-trihydroxystilbene, reference compound] | – | – | 20000 ± 3000 | inhibition of LPS-induced COX-2 mRNA ([5]; 4 μM): about 50%; suppression of LPS-induced COX-2 mRNA ([5]; 20 μM): markedly suppressed; effect on TPA-induced AP-1 activation [1]: activated; inhibition of TNF-induced activation of NF-κB (literature) [6]: inhibits TNF-induced activation of NF-κB |
| C(=Cc1ccccc1)c1ccccc1 [stilbene] | – | – | – | inhibition of TNF-induced activation of NF-κB (literature) [6]: inactive |
